The nature of this data set: Osmotic pressure of the drug in water. Type of data set: physicochemical. To be noted: in water at room temperature. The text has this: As an example of this discovery, the inventors selected leuprolide acetate as a sample compound. The inventors then experimentally determined that the osmotic pressure of leuprolide acetate in water is approximately 5 atmospheres at room temperature.
“Osmotic pressure of the drug” means the pressure that must be applied to a solution to prevent the net flow of solvent molecules (such as water) through a semipermeable membrane from a solution of lower drug concentration to a solution of higher drug concentration. The osmotic pressure of the drug can be experimentally determined with use of a vapor pressure osmometer, such as the Vapro® vapor pressure osmometer.

Our source for the osmotic pressure values is patent publication US20090123518A1, “Biodegradable implants with controlled bulk density” (priority 2007, published 2009).

Take `CCNC(=O)[C@@H]1CCCN1C(=O)[C@H](CCCNC(=N)N)NC(=O)[C@H](CC(C)C)NC(=O)[C@@H](CC(C)C)NC(=O)[C@H](Cc1ccc(O)cc1)NC(=O)[C@H](CO)NC(=O)[C@H](Cc1c[nH]c2ccccc12)NC(=O)[C@H](Cc1c[nH]cn1)NC(=O)[C@@H]1CCC(=O)N1` [leuprolide acetate]: the osmotic pressure entry was “approximately 5 atmospheres”.
